# Measured values as given in patent US10570131B2, “Heterocyclic compounds and their use in preventing or treating bacterial infections” (MUTABILIS, priority 2015, dated 2020).
# Where a name gives a salt, the structure may show the parent alone.
# Key:
# Type in all cases: cell-based
# P. aeruginosa UFR47 [1] = test: MIC of ceftazidime alone and in combination with compounds (synergy), broth microdilution; details: MIC of ceftazidime with compound fixed at 4 μg/mL; strain UFR47 (VIM-1)
# P. aeruginosa UFR92 [2] = test: as above; details: MIC of ceftazidime with compound fixed at 4 μg/mL; strain UFR92 (derepressed AmpC, OprD−)
# How it was run: (§1)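 MIC was read by eye as the lowest compound concentration that prevented bacterial growth. Log-phase cells at 5×10^5 cfu/mL in cation-adjusted Mueller-Hinton broth were exposed to compound, alone or combined with ceftazidime, for 16-20 h at 35° C.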
# P. aeruginosa UFR35 [3] = test: as above; details: MIC of ceftazidime with compound fixed at 4 μg/mL; strain UFR35 (OXA-23)
# How it was run: as §1
# P. aeruginosa UFR90 [4] = test: as above; details: MIC of ceftazidime with compound fixed at 4 μg/mL; strain UFR90 (derepressed AmpC, OprD−)
# How it was run: as §1
# P. aeruginosa UFR48 [5] = test: as above; details: MIC of ceftazidime with compound fixed at 4 μg/mL; strain UFR48 (VIM-2)
# How it was run: as §1
# C. murliniae 210102 [6] = test: as above; details: MIC of ceftazidime with compound fixed at 4 μg/mL; strain 210102 (VIM-4)
# E. coli UFR61O = test: MIC of compounds alone, broth microdilution; details: Escherichia coli, UFR61O, read-out: MIC compounds of the invention alone
# How it was run: as §1
# E. coli UFR52 = test: MIC of compounds alone, broth microdilution; details: Escherichia coli, UFR52, read-out: MIC compounds of the invention alone
# How it was run: as §1
# K. pneumoniae UFR24 = test: MIC of compounds alone, broth microdilution; details: Klebsiella pneumoniae, UFR24, read-out: MIC compounds of the invention alone
# How it was run: as §1
# E. cloacae UFR38 = test: MIC of compounds alone, broth microdilution; details: Enterobacter cloacae; strain UFR38 (CTX-M-15, NDM-1); read-out: MIC compounds of the invention alone
# How it was run: as §1
# K. oxytoca UFR21 = test: MIC of compounds alone, broth microdilution; details: Klebsiella oxytoca, UFR21, read-out: MIC compounds of the invention alone
# How it was run: as §1
# P. aeruginosa UFR92 [7] = test: MIC of compounds alone, broth microdilution; details: Pseudomonas aeruginosa, UFR92, read-out: MIC compounds of the invention alone
# How it was run: as §1
# E. cloacae UFR70 = test: MIC of compounds alone, broth microdilution; details: Enterobacter cloacae, UFR70, read-out: MIC compounds of the invention alone
# How it was run: as §1
# E. coli UFR32 = test: MIC of compounds alone, broth microdilution; details: Escherichia coli, UFR32, read-out: MIC compounds of the invention alone
# How it was run: as §1
# E. coli UFR18 = test: MIC of compounds alone, broth microdilution; details: Escherichia coli; strain UFR18 (CTX-M-15, OXA-204); read-out: MIC compounds of the invention alone
# How it was run: as §1
# E. coli UFR74 = test: MIC of compounds alone, broth microdilution; details: Escherichia coli, UFR74, read-out: MIC compounds of the invention alone
# How it was run: as §1
# P. aeruginosa UFR47 [8] = test: MIC of compounds alone, broth microdilution; details: Pseudomonas aeruginosa; strain UFR47 (VIM-1); read-out: MIC compounds of the invention alone
# How it was run: as §1
# E. cloacae 260508 = test: MIC of compounds alone, broth microdilution; details: Enterobacter cloacae, 260508, read-out: MIC compounds of the invention alone
# How it was run: as §1
# E. cloacae UFR85 = test: MIC of compounds alone, broth microdilution; details: Enterobacter cloacae, UFR85, read-out: MIC compounds of the invention alone
# How it was run: as §1
# K. pneumoniae 200047 = test: MIC of compounds alone, broth microdilution; details: Klebsiella pneumoniae, 200047, read-out: MIC compounds of the invention alone
# How it was run: as §1
# P. aeruginosa UFR35 [9] = test: MIC of compounds alone, broth microdilution; details: Pseudomonas aeruginosa; strain UFR35 (OXA-23); read-out: MIC compounds of the invention alone
# How it was run: as §1
# K. pneumoniae 160143 = test: MIC of compounds alone, broth microdilution; details: Klebsiella pneumoniae, 160143, read-out: MIC compounds of the invention alone
# How it was run: as §1
# P. aeruginosa UFR93 = test: MIC of compounds alone, broth microdilution; details: Pseudomonas aeruginosa, UFR93, read-out: MIC compounds of the invention alone
# How it was run: as §1
# P. aeruginosa UFR59 = test: MIC of compounds alone, broth microdilution; details: Pseudomonas aeruginosa; strain UFR59 (IMP-29); read-out: MIC compounds of the invention alone
# How it was run: as §1
# P. aeruginosa UFR90 [10] = test: MIC of compounds alone, broth microdilution; details: Pseudomonas aeruginosa, UFR90, read-out: MIC compounds of the invention alone
# How it was run: as §1
# P. aeruginosa UFR48 [11] = test: MIC of compounds alone, broth microdilution; details: Pseudomonas aeruginosa; strain UFR48 (VIM-2); read-out: MIC compounds of the invention alone
# How it was run: as §1
# C. murliniae 210102 [12] = test: MIC of compounds alone, broth microdilution; details: strain 210102 (VIM-4); read-out: MIC compounds of the invention alone
# How it was run: as §1
# K. pneumoniae UFR68 = test: MIC of compounds alone, broth microdilution; details: Klebsiella pneumoniae, UFR68, read-out: MIC compounds of the invention alone
# How it was run: as §1
# K. pneumoniae UFR77 = test: MIC of compounds alone, broth microdilution; details: Klebsiella pneumoniae; strain UFR77 (CMY-2); read-out: MIC compounds of the invention alone
# How it was run: as §1
SMILES,"MIC, combination of CAZ and compounds of the invention at 4 μg/mL (P. aeruginosa UFR47 [1]) [µg/mL]","MIC, combination of CAZ and compounds of the invention at 4 μg/mL (P. aeruginosa UFR92 [2]) [µg/mL]","MIC, combination of CAZ and compounds of the invention at 4 μg/mL (P. aeruginosa UFR35 [3]) [µg/mL]","MIC, combination of CAZ and compounds of the invention at 4 μg/mL (P. aeruginosa UFR90 [4]) [µg/mL]","MIC, combination of CAZ and compounds of the invention at 4 μg/mL (P. aeruginosa UFR48 [5]) [µg/mL]","MIC, combination of CAZ and compounds of the invention at 4 μg/mL (C. murliniae 210102 [6]) [µg/mL]",MIC (E. coli UFR61O) [µg/mL],MIC (E. coli UFR52) [µg/mL],MIC (K. pneumoniae UFR24) [µg/mL],MIC (E. cloacae UFR38) [µg/mL],MIC (K. oxytoca UFR21) [µg/mL],MIC (P. aeruginosa UFR92 [7]) [µg/mL],MIC (E. cloacae UFR70) [µg/mL],MIC (E. coli UFR32) [µg/mL],MIC (E. coli UFR18) [µg/mL],MIC (E. coli UFR74) [µg/mL],MIC (P. aeruginosa UFR47 [8]) [µg/mL],MIC (E. cloacae 260508) [µg/mL],MIC (E. cloacae UFR85) [µg/mL],MIC (K. pneumoniae 200047) [µg/mL],other results
"NC[C@@H]1CC(=NOCC(N)=O)[C@@H]2CN1C(=O)N2OS(=O)(=O)O (mixture of isomers) [Example 5, sodium and 2,2,2-trifluroacetate [(2S,5S)-4-(2-amino-2-oxo-ethoxy)imino-2-(azaniumylmethyl)-7-oxo-1,6-diazabicyclo[3.2.1]octan-6-yl] sulfate]",<0.25,<0.25,<0.25,<0.25,<0.25,1,0.5,8,> 32,0.125,> 32,2,> 32,1,0.25,> 32,2,32,> 32,> 32,MIC (P. aeruginosa UFR35 [9]): 1 µg/mL; MIC (K. pneumoniae 160143): > 32 µg/mL; MIC (P. aeruginosa UFR93): 4 µg/mL; MIC (P. aeruginosa UFR59): 4 µg/mL; MIC (P. aeruginosa UFR90 [10]): 1 µg/mL; MIC (P. aeruginosa UFR48 [11]): 2 µg/mL; MIC (C. murliniae 210102 [12]): > 32 µg/mL; MIC (K. pneumoniae UFR68): > 32 µg/mL; MIC (K. pneumoniae UFR77): > 32 µg/mL
"NC[C@@H]1CC(=O)[C@@H]2CN1C(=O)N2OS(=O)(=O)O [Example 6, 2,2,2-trifluroacetate and sodium [(2S,5S)-2-(azaniumylmethyl)-4,7-dioxo-1,6-diazabicyclo[3.2.1]octan-6-yl] sulfate]",≤0.25,≤0.25,<0.25,<0.25,≤0.25,4,4,2,> 32,0.5,> 32,4,> 32,1,1,> 32,4,> 32,> 32,> 32,MIC (P. aeruginosa UFR35 [9]): 4 µg/mL; MIC (K. pneumoniae 160143): > 32 µg/mL; MIC (P. aeruginosa UFR93): 8 µg/mL; MIC (P. aeruginosa UFR59): 16 µg/mL; MIC (P. aeruginosa UFR90 [10]): 4 µg/mL; MIC (P. aeruginosa UFR48 [11]): 8 µg/mL; MIC (C. murliniae 210102 [12]): > 32 µg/mL; MIC (K. pneumoniae UFR68): > 32 µg/mL; MIC (K. pneumoniae UFR77): > 32 µg/mL
